In the supplement of paper PMC10307832:

What was measured:
Test in all cases: relative viability (nuclei count vs DMSO), 5 days (fraction); higher = more cells survive
IPA-3 + Navitoclax = compound: C1=CC=C2C(=C1)C=CC(=C2SSC3=C(C=CC4=CC=CC=C43)O)O [IPA-3] + CC1(C)CCC(c2ccc(Cl)cc2)=C(CN2CCN(c3ccc(C(=O)NS(=O)(=O)c4ccc(N[C@H](CCN5CCOCC5)CSc5ccccc5)c(S(=O)(=O)C(F)(F)F)c4)cc3)CC2)C1 [Navitoclax] (partner 0.5 µM)
Procedure, shortened: (§1)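 Five library-drug doses in √10 steps were combined with a fixed anchor-drug dose, or a single drug was given alone, by pin tool to lung cancer cell lines in 1536-well plates the day after seeding. Nuclei were stained and counted after 5 days. Relative viability is the nuclei count in treated wells over that in vehicle wells, taken as the median of duplicate plates.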

IPA-3 + AZD7762 = compound: C1=CC=C2C(=C1)C=CC(=C2SSC3=C(C=CC4=CC=CC=C43)O)O [IPA-3] + NC(=O)Nc1cc(-c2cccc(F)c2)sc1C(=O)N[C@H]1CCCNC1 [AZD7762] (partner 0.2 µM)
Procedure, shortened: as §1

[1] = compound: Cc1ccc(-n2nc(C(C)(C)C)cc2NC(=O)Nc2ccc(OCCN3CCOCC3)c3ccccc23)cc1 [Doramapimod] + CC(=O)c1c(C)c2cnc(Nc3ccc(N4CCNCC4)cn3)nc2n(C2CCCC2)c1=O [Palbociclib] (partner 0.5 µM)
Procedure, shortened: as §1

RAF265 + Palbociclib = compound: Cn1c(Nc2ccc(C(F)(F)F)cc2)nc2cc(Oc3ccnc(-c4ncc(C(F)(F)F)[nH]4)c3)ccc21 [RAF265] + CC(=O)c1c(C)c2cnc(Nc3ccc(N4CCNCC4)cn3)nc2n(C2CCCC2)c1=O [Palbociclib] (partner 0.5 µM)
Procedure, shortened: as §1

Row | Cell Line | relative viability (IPA-3 + Navitoclax; first compound 0.2 µM) | relative viability (IPA-3 + Navitoclax; first compound 0.6325 µM) | relative viability (IPA-3 + Navitoclax; first compound 2 µM) | relative viability (IPA-3 + Navitoclax; first compound 6.325 µM) | relative viability (IPA-3 + Navitoclax; first compound 20 µM) | relative viability (IPA-3 + AZD7762; first compound 0.2 µM) | relative viability (IPA-3 + AZD7762; first compound 0.6325 µM) | relative viability (IPA-3 + AZD7762; first compound 2 µM) | relative viability (IPA-3 + AZD7762; first compound 6.325 µM) | relative viability (IPA-3 + AZD7762; first compound 20 µM) | relative viability ([1]; first compound 0.02 µM) | relative viability ([1]; first compound 0.06325 µM) | relative viability ([1]; first compound 0.2 µM) | relative viability ([1]; first compound 0.6325 µM) | relative viability ([1]; first compound 2 µM) | relative viability (RAF265 + Palbociclib; first compound 0.01 µM) | relative viability (RAF265 + Palbociclib; first compound 0.03162 µM) | relative viability (RAF265 + Palbociclib; first compound 0.1 µM) | relative viability (RAF265 + Palbociclib; first compound 0.3162 µM) | relative viability (RAF265 + Palbociclib; first compound 1 µM)
1 | NCI-H1395 | 1.13 | 1.05 | 1.13 | 1.16 | 1.57 | 0.377 | 0.413 | 0.423 | 0.373 | 0.345 | 0.67 | 0.6 | 0.64 | 0.58 | 0.583 | 0.634 | 0.56 | 0.567 | 0.597 | 0.437
2 | LU99A | 0.866 | 0.86 | 0.819 | 0.781 | 0.889 | 0.403 | 0.318 | 0.28 | 0.365 | 0.309 | 0.38 | 0.365 | 0.379 | 0.426 | 0.313 | 0.366 | 0.35 | 0.325 | 0.217 | 0.144
3 | NCI-H1437 | 1.16 | 0.997 | 1.19 | 1.02 | 1.15 | 1.2 | 1.08 | 1.18 | 1.06 | 1.19 | 0.337 | 0.31 | 0.278 | 0.368 | 0.304 | 0.318 | 0.315 | 0.305 | 0.366 | 0.306
4 | EKVX | 1.05 | 0.608 | 1.05 | 0.851 | 1.23 | 0.858 | 0.708 | 0.72 | 0.654 | 0.744 | 0.427 | 0.351 | 0.366 | 0.337 | 0.342 | 0.429 | 0.405 | 0.416 | 0.249 | 0.276
5 | LCLC-97TM1 | 0.599 | 0.4 | 0.36 | 0.359 | 0.451 | 0.356 | 0.205 | 0.307 | 0.251 | 0.247 | 0.233 | 0.211 | 0.257 | 0.219 | 0.171 | 0.233 | 0.245 | 0.158 | 0.208 | 0.0796
6 | NCI-H2170 | 0.702 | 0.614 | 0.552 | 0.507 | 0.504 | 1.1 | 0.826 | 0.78 | 0.795 | 0.919 | 0.381 | 0.421 | 0.413 | 0.387 | 0.377 | 0.398 | 0.295 | 0.354 | 0.26 | 0.295
7 | NCI-H1793 | 0.518 | 0.37 | 0.395 | 0.44 | 0.594 | 0.56 | 0.526 | 0.424 | 0.641 | 0.527 | 0.317 | 0.293 | 0.283 | 0.287 | 0.273 | 0.309 | 0.274 | 0.218 | 0.213 | 0.195
8 | NCI-H3122 | 0.994 | 0.998 | 1.01 | 1.12 | 1.02 | 1.02 | 1.01 | 0.995 | 1.11 | 0.999 | 0.18 | 0.176 | 0.191 | 0.2 | 0.213 | 0.18 | 0.216 | 0.19 | 0.198 | 0.19
9 | PC-14 | 1.09 | 1.03 | 0.994 | 0.988 | 0.974 | 0.402 | 0.362 | 0.431 | 0.328 | 0.407 | 0.552 | 0.594 | 0.487 | 0.552 | 0.508 | 0.47 | 0.495 | 0.519 | – | 0.35
10 | EPLC-272H | 1.25 | 1.4 | 1.16 | 1.21 | 1.18 | 0.185 | 0.204 | 0.218 | 0.234 | 0.16 | 0.356 | 0.342 | 0.345 | – | 0.286 | 0.334 | 0.291 | 0.352 | 0.287 | 0.269
11 | A-427 | 0.996 | 0.857 | 0.98 | 0.856 | 0.99 | 0.902 | 0.701 | 0.731 | 0.706 | 0.772 | 0.488 | 0.521 | 0.52 | – | 0.54 | 0.579 | 0.488 | 0.541 | 0.436 | 0.238
